Measured values: patent US20180305332A1, “Bispiperidinyl Derivatives as Liver X Receptor Beta Agonists, Compositions, and Their Use” (Merck Sharp & Dohme Corp., priority 2015, published 2018)

Tests used:
[1] = molecular target: T1, GST tagged LXRalpha LBD (ligand binding domain) (Homo sapiens, UniProt Q13133); experiment: LanthaScreen TR-FRET Liver X Receptor Coactivator Assay, LXR alpha-LBD; format: biochemical; conditions: relative to reference T0901317; for EC50: Inflection Point (potency), co-activator recruitment, read-out: LXR alpha IP; for Emax / LXR alpha act @ max dose (%): activity at max dose (efficacy); for Emax: read-out: LXR alpha act @ max dose (%)
T1 construct: purchased Invitrogen pv4655
T1 sequence (Q13133 209-447 limits assumed): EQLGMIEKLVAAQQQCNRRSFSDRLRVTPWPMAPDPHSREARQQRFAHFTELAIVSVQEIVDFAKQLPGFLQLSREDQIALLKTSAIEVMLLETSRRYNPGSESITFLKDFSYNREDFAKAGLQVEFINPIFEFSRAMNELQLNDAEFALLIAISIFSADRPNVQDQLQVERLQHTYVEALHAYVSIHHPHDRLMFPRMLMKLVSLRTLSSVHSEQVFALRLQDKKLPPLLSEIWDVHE
Method in brief: (§1)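 Values are inflection points (potency) and Emax (efficacy) expressed against reference agonist T0901317. Coactivator recruitment is measured by TR-FRET between terbium anti-GST antibody on the LBD and a fluorescein-labelled peptide, following room-temperature incubation.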

[2] = molecular target: T2, GST tagged LXRbeta LBD (ligand binding domain) (Homo sapiens, UniProt P55055); experiment: LanthaScreen TR-FRET Liver X Receptor Coactivator Assay, LXR beta-LBD; format: biochemical; conditions: relative to reference T0901317; for EC50: Inflection Point (potency), co-activator recruitment, read-out: LXR beta IP; for Emax / LXR beta act @ max dose (%): activity at max dose (efficacy); for Emax: read-out: LXR beta act @ max dose (%)
T2 construct: purchased Invitrogen pv4658.pps
T2 sequence (P55055 222-460 limits assumed): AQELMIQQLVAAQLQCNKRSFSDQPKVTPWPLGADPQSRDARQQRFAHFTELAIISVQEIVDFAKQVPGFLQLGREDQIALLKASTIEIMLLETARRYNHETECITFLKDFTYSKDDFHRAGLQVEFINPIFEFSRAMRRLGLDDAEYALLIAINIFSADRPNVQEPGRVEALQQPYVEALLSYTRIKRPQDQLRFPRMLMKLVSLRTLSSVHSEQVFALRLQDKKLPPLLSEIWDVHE
Method in brief: as §1

Compound | EC50 [1] [nM] | Emax [1] [%] | EC50 [2] [nM] | Emax [2] [%] | LXR alpha act @ max dose (%) [1] [%] | LXR beta act @ max dose (%) [2] [%]
CN(C)C(=O)c1ccc(N2CCC(C3CCN(C(=O)[C@@](O)(c4ccccc4)C(F)(F)C(F)(F)F)CC3)CC2)nc1Cl (single isomer, unassigned) [Example B-17] | 854 | 39 | 30 | 130 | – | –
CN(C)C(=O)c1ccc(N2CCC(C3CCN(C(=O)C(C)(C)C(F)(F)F)CC3)CC2)cc1Cl [Example A-41, 2-chloro-N,N-dimethyl-4-[1′-(3,3,3-trifluoro-2,2-dimethylpropanoyl)-4,4′-bipiperidin-1-yl]benzamide] | 3390 | 71 | 84 | 112 | – | –
Cc1ccccc1S(=O)(=O)N1CCC(C2CCN(c3ccc(C(=O)N(C)C)c(Cl)c3)CC2)CC1 [Example A-100, 2-chloro-N,N-dimethyl-4-{1′-[(2-methylphenyl)sulfonyl]-4,4′-bipiperidin-1-yl}benzamide] | 5770 | 48 | 140 | 121 | – | –
O=C(c1ccc(N2CCC(C3CCN(C(=O)[C@](O)(c4ccccc4)C(F)(F)F)CC3)CC2)cc1Cl)N1CC(c2cccnc2)C1 [Example E-43, (2R)-3-(1′-{3-chloro-4-[(3-pyridin-3-ylazetidin-1-yl)carbonyl]phenyl}-4,4′-bipiperidin-1-yl)-1,1,1-trifluoro-3-oxo-2-phenylpropan-2-ol] | 3010 | 24 | 355 | 50 | – | –
CN(C)C(=O)c1ccc(N2CCC(C3CCN(C(=O)C(O)(C(F)(F)F)C(F)(F)F)CC3)CC2)nc1Cl [Example B-15, 2-chloro-N,N-dimethyl-6-{1′-[3,3,3-trifluoro-2-hydroxy-2-(trifluoromethyl)propanoyl]-4,4′-bipiperidin-1-yl}pyridine-3-carboxamide] | 2240 | 87 | 34 | 121 | – | –
CCCC(O)(C(=O)N1CCC(C2CCN(c3ccc(C(=O)N(C)C)c(Cl)c3)CC2)CC1)C(F)(F)F (centres unmarked) [Example A-84, 2-chloro-4-{1′-[2-hydroxy-2-(trifluoromethyl)pentanoyl]-4,4′-bipiperidin-1-yl}-N,N-dimethylbenzamide] | 1370 | – | 173 | – | 63 | 116
COc1cccc([C@@](O)(C(=O)N2CCC(C3CCN(c4ccc(C(=O)N(C)C)c(Cl)c4)CC3)CC2)C(F)(F)F)c1 (single isomer, unassigned) [Example A-65] | 2120 | 19 | 119 | 100 | – | –
CN(C)C(=O)c1ccc(N2CCC(C3CCN(C(=O)C4(c5c(F)cccc5Cl)CCCC4)CC3)CC2)cc1Cl [Example A-82, 2-chloro-4-(1′-{[1-(2-chloro-6-fluorophenyl)cyclopentyl]carbonyl}-4,4′-bipiperidin-1-yl)-N,N-dimethylbenzamide] | 148 | 58 | 7 | 107 | – | –
CN(C)C(=O)c1ccc(N2CCC(C3CCN(C(=O)[C@](O)(c4ccccc4)C(F)(F)C(F)(F)F)CC3)CC2)cc1Cl (single isomer, unassigned) [Example A-20] | 625 | 0 | 35 | 146 | – | –
CC(C)C(O)(C(=O)N1CCC(C2CCN(c3ccc(C(N)=O)c(Cl)c3)CC2)CC1)C(F)(F)F (centres unmarked) [Example E-4, 2-chloro-4-{1′-[2-hydroxy-3-methyl-2-(trifluoromethyl)butanoyl]-4,4′-bipiperidin-1-yl}benzamide] | 180 | 67 | 51 | 94 | – | –
CC(C)C(O)(C(=O)N1CCC(C2CCN(c3cc(F)c(C(=O)N(C)C)c(F)c3)CC2)CC1)C(F)(F)F [Example D-1, 2,6-difluoro-4-{1′-[2-hydroxy-3-methyl-2-(trifluoromethyl)butanoyl]-4,4′-bipiperidin-1-yl}-N,N-dimethylbenzamide] | 1450 | 43 | 157 | 101 | – | –
CC(C)(C(=O)N1CCC(C2CCN(c3ccc(C(=O)N4CCCC4)c(Cl)c3)CC2)CC1)c1ccccc1 [Example E-18, 1-[3-chloro-4-(pyrrolidin-1-ylcarbonyl)phenyl]-1′-(2-methyl-2-phenylpropanoyl)-4,4′-bipiperidine] | 1280 | 52 | 73 | 99 | – | –
CC(C)(C)OC(=O)N1CCC(C2CCN(c3ccc(S(C)(=O)=O)c(Cl)c3)CC2)CC1 [Example D-9, tert-butyl 1′-[3-chloro-4-(methylsulfonyl)phenyl]-4,4′-bipiperidine-1-carboxylate] | 822 | 41 | 124 | 81 | – | –
C=CCC(O)(C(=O)N1CCC(C2CCN(c3ccc(C(=O)N(C)C)c(Cl)c3)CC2)CC1)C(F)(F)F (centres unmarked) [Example A-57, 2-chloro-4-{1′-[2-hydroxy-2-(trifluoromethyl)pent-4-enoyl]-4,4′-bipiperidin-1-yl}-N,N-dimethylbenzamide] | 4790 | 58 | 311 | 112 | – | –
CCN(CC)C(=O)c1ccc(N2CCC(C3CCN(C(=O)C(O)(C(C)C)C(F)(F)F)CC3)CC2)cc1Cl (centres unmarked) [Example E-9, 2-chloro-N,N-diethyl-4-{1′-[2-hydroxy-3-methyl-2-(trifluoromethyl)butanoyl]-4,4′-bipiperidin-1-yl}benzamide] | 114 | 49 | 30 | 96 | – | –
CN(C)C(=O)c1ccc(N2CCC(C3CCN(C(=O)C(O)(C(C)(C)C)C(F)(F)F)CC3)CC2)cc1Cl (single isomer, unassigned) [Example A-7, 2-Chloro-4-(1′-(2-hydroxy-3,3-dimethyl-2-(trifluoromethyl)butanoyl)-[4,4′-bipiperidin]-1-yl)-N,N-dimethylbenzamide] | 1400 | – | 62 | – | 56 | 93
CN(C)C(=O)c1ccc(N2CCC(C3CCN(C(=O)C(F)(F)c4ccccc4)CC3)CC2)cc1Cl [Example A-64, 2-chloro-4-{1′-[difluoro(phenyl)acetyl]-4,4′-bipiperidin-1-yl}-N,N-dimethylbenzamide] | 936 | 74 | 54 | 144 | – | –
